Read-outs that look alike come from different tables or passages of the source.
Key:
BCRP = biological target: T1, BCRP (Homo sapiens, UniProt Q9UNQ0); assay: Efflux transporter identification in Caco-2 cell with BCRP specific inhibitors; conditions: efflux ratio reduced by fumitremorgin C and Ko134, concentration-dependent
T1 sequence (Q9UNQ0 1-655): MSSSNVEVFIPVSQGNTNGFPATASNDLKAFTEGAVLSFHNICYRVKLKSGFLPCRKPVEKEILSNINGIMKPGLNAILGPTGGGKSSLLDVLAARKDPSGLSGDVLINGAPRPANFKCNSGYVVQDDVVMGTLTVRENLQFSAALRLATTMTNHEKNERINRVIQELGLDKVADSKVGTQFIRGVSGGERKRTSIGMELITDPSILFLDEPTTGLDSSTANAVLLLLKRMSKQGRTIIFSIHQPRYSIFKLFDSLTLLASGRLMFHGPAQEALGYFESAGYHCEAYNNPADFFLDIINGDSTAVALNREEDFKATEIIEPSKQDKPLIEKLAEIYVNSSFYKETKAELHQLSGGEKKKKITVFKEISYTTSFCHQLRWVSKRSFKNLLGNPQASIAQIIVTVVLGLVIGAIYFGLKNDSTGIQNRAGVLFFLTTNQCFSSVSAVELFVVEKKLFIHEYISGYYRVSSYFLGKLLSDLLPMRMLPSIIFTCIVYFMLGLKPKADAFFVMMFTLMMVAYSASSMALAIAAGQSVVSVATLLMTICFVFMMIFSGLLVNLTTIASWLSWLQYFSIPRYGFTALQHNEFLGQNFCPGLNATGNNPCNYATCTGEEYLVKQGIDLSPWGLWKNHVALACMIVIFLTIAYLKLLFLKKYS

[1] = Systemic clearance and pharmacokinetics after i.v. dose in C57BL/6 mice aging 2 months; type: in vivo, mouse; conditions: male, iv; for clearance / AUC(0-inf) / half-life / MRT inf / Vd: C57BL/6, mouse, plasma; for clearance: read-out: Cl p (converted); for MRT inf: read-out: MRT 0-∞; for Vd: read-out: Vd ss; for CL renal: mouse, urine and plasma, C57BL/6 mice, urine 0–24 h, read-out: Total Cl renal (converted)
Experimental: Male C57BL/6 and Bile duct-cannulated (BDC) mice (2 months, weighting: 25–30 g) obtained from Charles River, Inc. (Raleigh, NC) were used to study systemic clearance mechanism, in line with in vitro commercial samples from adolescent animals. Mice were fasted overnight and throughout the duration of the study ([…]), whereas access to water was provided ad libitum. SLOH and SLM were administered i.v. in PBS containing 5% DMSO via the tail vein (n = 5) at different dosages in a dosing volume of 5 mL/kg. Serial blood samples were collected before dosing and at 0.083, 0.167, 0.25, 0.5, 1, 2, 4, 8, 12 and 24 hours after dosing. Urine samples (0–12 and 12–24 hours; pooled 0–24 hours) were also collected after i.v. administration (1 mg/kg). Bile samples were collected at intervals of 0–4, 4–8 and 8–24 hours (pooled 0–24 hours) after dosing (1 mg/kg) to BDC mice.
Parameters in animals were determined using non-compartmental analysis. […] Systemic Cl p was calculated as the i.v. dose divided by AUC0−∞ ^iv. The terminal rate constant (K el) was calculated by a linear regression of the log-linear concentration-time curve, and the terminal elimination t 1/2 was calculated as 0.693 divided by K el. Mean residence time from t = 0 to infinity (MRT 0−∞) was calculated as AUMC 0−∞ divided by AUC 0−∞. Apparent steady-state distribution volume (Vd ss) was determined as Cl p multiplied by MRT 0−∞. […] The Cl bile was derived as the amount of (in milligrams) of SLM or SLOH in the bile over the 24-hour interval postdose/AUC0-24h. The influx clearance into brain (K in) was calculated by using the amount of drug in the brain (homogenate) at time t (A, brain (t)) (corrected for the amount of drug remaining in the cerebral vasculature) divided by plasma exposure up to this time point (AUC, plasma (0 − t)). The C u,brain was calculated by A brain (homogenate, ng/g brain) divided by V u,brain (mL/g brain). The unbound ISF to plasma ratio (K puu,brain) was calculated by unbound AUC 0−t of ISF (ng/mL × min) divided by unbound AUC 0–t (ng/mL × min) of plasma.

[2] = Brain distribution by brain slices experiment; type: in vitro ADME, mouse; conditions: mouse
Experimental: The unbound volume of distribution in the brain (V u, brain) was determined in fresh brain slices using the protocol published by Friden et al.[25].

[3] = Plasma binding by RED device; type: in vitro ADME, mouse; conditions: for plasma binding: mice; for f u,plasma %: mouse plasma, RED device, 4 h, 37 °C; on all read-outs here: tested at 0.4 µM
Experimental: Nonspecific binding in plasma (f u, plasma), microsomes (f u, mic) and hepatocyte (f u, hep) were determined using the method seen in supplemental information (Supplemental Methods). […]
All validation compounds were incubated at 37 °C over 4 h, and in triplicate. For […]
plasma stability, 10 mM DMSO solutions of SLM and SLOH were diluted to 40 µM (10% DMSO). Plasma […]
shaking water bath (60 oscillations/min approx.). The assay was started by addition of 6 µL aliquots to […]
the plasma (final DMSO incubation concentration 0.1%). […]
MS/MS. Natural logarithm of peak area ratios (compound peak area normalized by IS peak area) were plotted against time and half-life calculated. […]
placed into the sample chamber (indicated by the red ring) with 400 µL of PBS into the adjacent chamber.
The plate was sealed with a self-adhesive lid and incubated at 37 °C on an orbital shaker (1.5 g approx.) for 4 h. Aliquots (100 µL) were removed from each side of the insert, and analyzed after protein precipitation using 4 folds acetonitrile (ACN) containing berberine chloride as internal standard (IS) by LC-MS/MS (Analytical me thod seen below). The experimental procedure outlined in the Thermo Scientific RED device systems brochure was adopted in the present study . […]

[4] = 1 mg/kg, C57BL/6 mice 2 months, i.v. 1 mg/kg

Row | Compound | BCRP substrate identification (BCRP) | clearance ([1]; 0.2 mg/kg, i.v. 0.2 mg/kg) [L/h/kg] | clearance ([1]; 0.6 mg/kg, i.v. 0.6 mg/kg) [L/h/kg] | clearance [1, 4] [L/h/kg] | clearance ([1]; 2 mg/kg, i.v. 2.0 mg/kg) [L/h/kg] | clearance ([1]; 4 mg/kg, i.v. 4.0 mg/kg) [L/h/kg] | AUC(0-inf) ([1]; i.v. 0.2 mg/kg) [µg·h/mL] | half-life ([1]; i.v. 0.2 mg/kg) [h] | MRT inf ([1]; i.v. 0.2 mg/kg) [h] | Vd ([1]; i.v. 0.2 mg/kg) [L/kg] | AUC(0-inf) ([1]; i.v. 0.6 mg/kg) [µg·h/mL] | half-life ([1]; i.v. 0.6 mg/kg) [h] | MRT inf ([1]; i.v. 0.6 mg/kg) [h] | Vd ([1]; i.v. 0.6 mg/kg) [L/kg] | half-life ([1]; i.v. 1.0 mg/kg) [h] | MRT inf ([1]; i.v. 1.0 mg/kg) [h] | Vd ([1]; i.v. 1.0 mg/kg) [L/kg] | half-life ([1]; i.v. 2.0 mg/kg) [h] | MRT inf ([1]; i.v. 2.0 mg/kg) [h] | Vd ([1]; i.v. 2.0 mg/kg) [L/kg] | also measured
1 | COCCOCCn1c2ccccc2c2cc(/C=C/c3cc[n+](CCO)c4ccccc34)ccc21 [SLOH, (E)-1-(2-hydroxyethyl)-4-(2-(9-(2-(2-metho-xyethoxy)-ethyl)-9H-carbazol-3-yl)vinyl) quinolin-1-ium chloride] | substrates | 0.93 | 0.77 | ~0.61 | 0.64 | 0.71 | 0.22 ± 0.061 | 6.9 ± 3.7 | 2.7 ± 1.5 | 1 ± 0.33 | 0.86 ± 0.31 | 5.5 ± 1.1 | 2.3 ± 0.78 | 1.2 ± 0.58 | 5.8 ± 0.16 | 1.8 ± 0.1 | 0.83 ± 0.43 | 4.6 ± 0.76 | 1.8 ± 0.17 | 1 ± 0.36 | half-life ([1]; i.v. 4.0 mg/kg): 5.8 ± 1.7 h; MRT inf ([1]; i.v. 4.0 mg/kg): 1.7 ± 0.08 h; Vd ([1]; i.v. 4.0 mg/kg): 1 ± 0.35 L/kg; CL renal ([1]; i.v. 1 mg/kg): 0.01 L/h/kg; V u,brain (AD) [2]: 1.20 ± 0.240 mL/g brain; V u,brain (WT) [2]: 1.40 ± 0.400 mL/g brain; plasma binding [3]: > 95%; f u,plasma % [3]: 3.50 ± 0.700^$ %
2 | COCCOCCn1c2ccccc2c2cc(/C=C/c3cc[n+](C)c4ccccc34)ccc21.[I-] [SLM, (E)-4-(2-(9-(2-(2-methoxyethoxy)ethyl)-9H-carbazol-3-yl)-vinyl)-1-methyl-quinolin-1-iumiodide] | substrates | 0.89 | 0.93 | ~0.71 | 0.75 | 0.83 | 0.24 ± 0.074 | 6.4 ± 4 | 3.5 ± 0.95 | 1.5 ± 0.63 | 0.58 ± 0.17 | 6 ± 1.1 | 3.7 ± 0.86 | 2.1 ± 0.54 | 9.3 ± 3.3 | 3.2 ± 1 | 2.2 ± 0.61 | 7.1 ± 0.55 | 2.5 ± 0.18 | 1.7 ± 0.55 | half-life ([1]; i.v. 4.0 mg/kg): 6.5 ± 2 h; MRT inf ([1]; i.v. 4.0 mg/kg): 3 ± 0.52 h; Vd ([1]; i.v. 4.0 mg/kg): 2.1 ± 0.2 L/kg; CL renal ([1]; i.v. 1 mg/kg): 0.04 L/h/kg; V u,brain (AD) [2]: 1.50 ± 0.580 mL/g brain; V u,brain (WT) [2]: 2.10 ± 0.650 mL/g brain; plasma binding [3]: > 95%; f u,plasma % [3]: 1.70 ± 0.380^$ %

Reference: publication PMC5703966, “Systemic clearance and brain distribution of carbazole-based cyanine compounds as Alzheimer’s disease drug candidates” (Scientific Reports, 2017)
